Where “and” joins values, the source holds several entries; their conditions need not be identical. Equal values may be shown once.
Assays:
LSD1 = LSD1 (Homo sapiens, UniProt O60341); experiment: LSD1 Demethylase Profiling (HRP/Amplex Red); format: biochemical; details: for LSD1 inhibition (in words): 10-dose, 3-fold serial dilution starting at 100 μM, 10 μM Histone H3 (1-21) K4me2 peptide
Procedure: (§1) Formulation 2 (4× diluted) was tested against positive control tranylcypromine for LSD1 inhibition activity. […] The production of FAD-dependent H2O2 as a result of demethylase activity of LSD1 is measured by coupling with HRP and Amplex Red and fluorescence was measured using the EnVision plate reader at Ex/Em=535/590 nm. 10 μM Histone H3 (1-21) K4me2 peptide was used as the standard substrate. Data was represented at the percentage of LSD1 enzymatic activity inhibition relative to DMSO controls and a curve fit for the control compound.
as §1, with “Hydroxytyrosol” for “Formulation 2 (4× diluted)”

human keratinocytes = experiment: mRNA-Sequencing, human keratinocytes; format: cell-based
Procedure: Human chronic myelogenous leukemia K562 cells (ATCC No. CCL-243) were obtained from the American Type Culture Collection (Manassas, Va., USA) and maintained in complete-[…] Park Memorial Institute (RPMI) 1640 medium supplemented with 20 mmol/L HEPES (pH 7.4; GIBCO-Invitrogen, Carlsbad, Calif., USA), 10% (v/v) fetal bovine serum (FBS), 2 mmol/L L-glutamine (GIBCO-Invitrogen), and 80 units gentamicin (GIBCO-Invitrogen). Cells were cultured in suspension in a humidified atmosphere of 5% (v/v) CO2 at 37° C. and were maintained in exponential growth phase. For maintenance, cells were passaged twice per week and seeded at ratios 1:10. Human neonatal foreskin keratinocytes transfected with the human papilloma virus (HPV) were grown as monolayers in keratinocyte—Serum Free Medium (SFM) medium (GIBCO-Invitrogen) supplemented with L-glutamine, human epidermal growth factor (EGF), and bovine pituitary extract (BPE) at 37° C., 5% (v/v) CO2. Cells were passaged by trypsinisation and seeded at ratio of 1:3. Cells were seeded at densities of 1×10^6/mL in culture flasks (Nalge Nunc, New York, USA) and treated with hydroxytyrosol (0, 20, 100 μM), for 24 hours at 37° C., 5% (v/v) CO2. mRNA sequencing was performed by TRIZOL extraction and library preparation using Illumina kits according to manufacturer's protocols. Next generation sequencing (NGS) was performed at a depth of approximately 20 million mapped reads per sample to determine the effect of hydroxytyrosol on genome-wide gene expression, in human erythroleukemic K562 cells and human keratinocytes (24 hr treatment, 20 and 100 μM). Reads generated by the Illumina base calling software V1.6 were aligned with Burrows Wheeler Aligner to the human transcriptome database curated by RefSeq (Hg18 build). Raw counts were normalized to adjust for slightly differing data volume across lanes giving the widely used score reads per transcript per million reads. These scores were used to determine relative fold changes and the conventionally used ±1.5 fold-change, which is discernible with qRT-PCR, was defined a significant change in expression. The online program MetaCore (GeneGo Inc. St. Joseph, MI, USA) was used for pathway analysis.

[1] = Cell viability (Cell-Titer Blue), PBMC; format: cell-based; details: human, PBMC (peripheral blood mononuclear cells), hydroxytyrosol 20 or 100 μM
Procedure: Cells were seeded at densities of 7,500 cells/in black flat bottom 96-well plates (Nalge Nunc, Penfield, N.Y., USA) and treated with a dose response of hydroxytyrosol (0-200 μM), oleuropein (0-800 μM), tyrosol (0-1000 μM) and homovanilic acid (0-1000 μM) for 24 hours at 37° C., 5% (v/v) CO2. Cell viability was determined after 24 hour exposure to hydroxytyrosol and measured using the Cell-Titer Blue® Assay kit (Promega, Madison, Wis., USA) according to the manufacturer's instructions. Cell-Titer Blue reagent was added to each well and incubated for 4 hours at 37° C., 5% CO2, before reading fluorescence intensity (550 nm excitation; 615 nm emission) using the Perkin Elmer Victor3 (Perkin Elmer, MA, USA) multi-label plate reader.

[2] = hydroxytyrosol 24 hr (20 μM per FIG. 18C)

LSD1 inhibition (in words) (LSD1; listed as Hydroxytyrosol): Hydroxytyrosol is a potent | LSD1 inhibition (in words) (LSD1; listed as hydroxytyrosol): potent inhibitor of LSD1
SMILES: OCCc1ccc(O)c(O)c1 [HT, 4-(2-hydroxyethyl)-1,2-benzenediol]
LSD1 inhibition compared with tranylcypromine (LSD1; positive control tranylcypromine): more effective LSD1 inhibitor against tranylcypromine | heme oxygenase 1 (HMOX-1) up-regulated (human keratinocytes; hydroxytyrosol): 15 fold | number of genes whose expression is regulated (human keratinocytes; hydroxytyrosol): ~3 thousand genes | ELP3 expression Fold Change (UP) (human keratinocytes; [2]): 1.51 fold | HDAC5 expression Fold Change (UP) (human keratinocytes; [2]): 1.81 fold and 1.70 fold | HDAC9 expression Fold Change (UP) (human keratinocytes; [2]): 3.00 fold | HDAC11 expression Fold Change (UP) (human keratinocytes; [2]): 1.65 fold and 1.54 fold | JHDM1D expression Fold Change (UP) (human keratinocytes; [2]): 1.66 fold | KDM2B expression Fold Change (UP) (human keratinocytes; [2]): 1.64 fold and 1.55 fold | KDM3A expression Fold Change (UP) (human keratinocytes; [2]): 1.60 fold | KDM5D expression Fold Change (DOWN) (human keratinocytes; [2]): 2.00 fold | MLL3 expression Fold Change (DOWN) (human keratinocytes; [2]): 2.00 fold | NCOA1 expression Fold Change (UP) (human keratinocytes; [2]): 1.51 fold | PRDM1 expression Fold Change (UP) (human keratinocytes; [2]): 2.67 fold and 4.00 fold | PRDM4 expression Fold Change (UP) (human keratinocytes; [2]): 1.56 fold | PRDM8 expression Fold Change (UP) (human keratinocytes; [2]): 1.85 fold and 1.64 fold | PRDM11 expression Fold Change (UP) (human keratinocytes; [2]): 3.00 fold | PRDM12 expression Fold Change (DOWN) (human keratinocytes; [2]): 1.50 fold | PRMT8 expression Fold Change (DOWN) (human keratinocytes; [2]): 2.00 fold | SETBP1 expression Fold Change (DOWN) (human keratinocytes; [2]): 2.00 fold | SETDB2 expression Fold Change (UP) (human keratinocytes; [2]): 1.75 fold | SETMAR expression Fold Change (UP) (human keratinocytes; [2]): 1.53 fold | SMYD3 expression Fold Change (DOWN) (human keratinocytes; [2]): 1.55 fold | viability at 24 h [1]: 100%

Source: patent US10231939B2, “Hydroxytyrosol and oleuropein compositions for induction of DNA damage, cell death and LSD1 inhibition” (priority 2012, dated 2019)
